{"source": "patent US20160324152A1", "about": "“Compositions And Methods For Killing And/Or Immobilizing Insects” (The United States of America, as represented by the …, priority 2015, published 2016)", "tested_on": "Solenopsis invicta workers", "conditions": "topical", "protocol": "Topical Bioassay: Mortalities of S. invicta workers after topical treatment with Ethal TDA surfactants were determined. For ease of handling and obtaining uniform body weight, only large workers were used in the bioassay. Acetone was used as a solvent. The solution (10% w/v) was applied with a 0.779 μl capillary tube. All surfactants were tested at a concentration of 77.9 μg/ant. In the control, ants were only treated with 0.779 μl acetone. Treated ants were placed in a 30-ml capped cup at room temperature (˜23° C.) and dead ants were counted at 24 h. Three colonies were originally tested. There were 3-6 replicates for each colony. A single replicate consisted of 17 to 20 ants. In order to assess the mortality at 48 h, another three colonies were tested. For these three colonies, dead ants were counted at both 24 h and 48 h. Mortalities were adjusted using Abbott's formula (Abbott, W. S., J. Econ. Entomol., 18: 265-267 (1925)) before being used in statistical analysis. For analyzing 24 h mortality, data for all six colonies were used.\nWe also tested the toxicity of piperonyl butoxide (PBO) against red imported fire ants. […] Topical bioassay as described above was used: Mortalities of S. invicta workers after topical treatment with PBO were determined. […] Treated ants were placed in a 30-ml capped cup at room temperature (˜23° C.) and dead ants were counted at 24 h. […]", "note": "Like-named read-outs stand apart in the source and are kept apart here."}
{"smiles": "CCCCCCCCCCCC(C)=O", "note": "[2-tridecanone]", "values": [{"measurement": "LD50", "setting": "colony 288, PBO 0 μg/ant", "result": 18.96, "unit": "μg/ant"}, {"measurement": "LD50", "setting": "colony 295, PBO 0 μg/ant", "result": 22.82, "unit": "μg/ant"}]}
